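Cells were grown in 96-well plates and exposed to each compound for 48 hours at five concentrations; endpoints were interpolated linearly between bracketing concentrations, or set to the highest concentration if not reached. Here, GI50 denotes the concentration required for 50% inhibition of growth. The concentration for full growth arrest is given as TGI.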
Key:
Test in all cases: NCI tumour cell line growth inhibition, 48 h
[1] = tested on: OVCAR-4 ovarian
[2] = tested on: HT29 colon
[3] = tested on: SN12C renal
[4] = tested on: OVCAR-3 ovarian
[5] = tested on: OVCAR-5 ovarian
[6] = tested on: U251 CNS
[7] = tested on: 786-0 renal
[8] = tested on: SNB-75 CNS
[9] = tested on: UO-31 renal
[10] = tested on: NCI-H460 lung
[11] = tested on: CCRF-CEM leukemia
[12] = tested on: M14 melanoma
[13] = tested on: HCT-15 colon
[14] = tested on: MCF7 breast
[15] = tested on: SK-MEL-5 melanoma
[16] = tested on: HS 578T breast
[17] = tested on: A498 renal
[18] = tested on: UACC-62 melanoma
[19] = tested on: PC-3 prostate
[20] = tested on: LOX IMVI melanoma
[21] = tested on: CAKI-1 renal
[22] = tested on: SF-539 CNS
[23] = tested on: NCI/ADR-RES ovarian
[24] = tested on: COLO 205 colon
[25] = tested on: MALME-3M melanoma
[26] = tested on: RPMI-8226 leukemia
[27] = tested on: DU-145 prostate
[28] = tested on: SNB-19 CNS
[29] = tested on: A549 NSCLC
[30] = tested on: NCI-H226 lung
[31] = tested on: SR leukemia
[32] = tested on: SK-OV-3 ovarian
[33] = tested on: SF-295 CNS
[34] = tested on: KM12 colon
[35] = tested on: MDA-MB-231 breast
[36] = tested on: MDA-MB-435
[37] = tested on: HOP-92 NSCLC
[38] = tested on: NCI-H522 lung
[39] = tested on: RXF 393 renal
[40] = tested on: SW-620 colon
[41] = tested on: BT-549 breast
[42] = tested on: HOP-62 NSCLC
[43] = tested on: SK-MEL-28 melanoma
[44] = tested on: T-47D breast
[45] = tested on: EKVX NSCLC
[46] = tested on: HCT-116 colon
[47] = tested on: UACC-257 melanoma
[48] = tested on: HL-60(TB) leukemia
[49] = tested on: ACHN renal
[50] = tested on: HCC-2998 colon
[51] = tested on: NCI-H23 lung
[52] = tested on: MOLT-4 leukemia
[53] = tested on: OVCAR-8 ovarian
[54] = tested on: SK-MEL-2 melanoma
[55] = tested on: TK-10 renal
[56] = tested on: K-562 leukemia
[57] = tested on: SF-268 CNS
[58] = tested on: IGROV1 ovarian

CCO/C=N/C1=C(C#N)C(c2ccc(Cl)cc2)c2sc3c(C)cccc3c2O1 (stereo unspecified) showed a GI50 [1] of 1350 nM, a TGI [1] of 19900 nM and a GI50 [2] of 967 nM. It also gave a TGI [2] of 11900 nM, a GI50 [3] of 865 nM and a TGI [3] of 12600 nM. For the same compound, the GI50 [4] was 409 nM, the TGI [4] was 7850 nM and the GI50 [5] was 2370 nM. The TGI [5] was 15500 nM, the GI50 [6] was 609 nM and the TGI [6] was 12700 nM. It also gave a GI50 [7] of 976 nM, a TGI [7] of 13900 nM and a GI50 [8] of 234 nM. For the same compound, the TGI [8] was 1410 nM, the GI50 [9] was 562 nM and the TGI [9] was 17100 nM. The GI50 [10] was 406 nM, the TGI [10] was 7660 nM and the GI50 [11] was 371 nM. For the same compound, the TGI [11] was 19400 nM, the GI50 [12] was 528 nM and the TGI [12] was 11900 nM. It also gave a GI50 [13] of 423 nM, a TGI [13] of 10200 nM and a GI50 [14] of 327 nM. For the same compound, the TGI [14] was 11600 nM, the GI50 [15] was 845 nM and the TGI [15] was 10400 nM. For the same compound, the GI50 [16] was 414 nM, the TGI [16] was 11500 nM and the GI50 [17] was 315 nM. It also gave a TGI [17] of 1480 nM, a GI50 [18] of 447 nM and a TGI [18] of 14800 nM. It also gave a GI50 [19] of 377 nM, a TGI [19] of 12100 nM and a GI50 [20] of 611 nM. The TGI [20] was 13000 nM, the GI50 [21] was 532 nM and the TGI [21] was 18500 nM. The GI50 [22] was 379 nM, the TGI [22] was 1810 nM and the GI50 [23] was 438 nM. It also gave a TGI [23] of 13400 nM, a GI50 [24] of 1990 nM and a TGI [24] of 6930 nM. The GI50 [25] was 689 nM, the TGI [25] was 23400 nM and the GI50 [26] was 408 nM. For the same compound, the TGI [26] was 15800 nM, the GI50 [27] was 758 nM and the TGI [27] was 14400 nM. For the same compound, the GI50 [28] was 566 nM, the TGI [28] was 16300 nM and the GI50 [29] was 749 nM. It also gave a TGI [29] of 15100 nM, a GI50 [30] of 1150 nM and a TGI [30] of 15400 nM. The GI50 [31] was 542 nM, the TGI [31] was > 47200 nM and the GI50 [32] was 2700 nM. It also gave a TGI [32] of 22100 nM, a GI50 [33] of 288 nM and a TGI [33] of 2470 nM. The GI50 [34] was 551 nM, the TGI [34] was 15700 nM and the GI50 [35] was 2190 nM. The TGI [35] was 15400 nM, the GI50 [36] was 214 nM and the TGI [36] was 516 nM. It also gave a GI50 [37] of 188 nM, a TGI [37] of 3760 nM and a GI50 [38] of 398 nM. It also gave a TGI [38] of 5050 nM, a GI50 [39] of 275 nM and a TGI [39] of 1330 nM. For the same compound, the GI50 [40] was 451 nM, the TGI [40] was 15800 nM and the GI50 [41] was 1830 nM. The TGI [41] was 11400 nM, the GI50 [42] was 574 nM and the TGI [42] was 18600 nM. The GI50 [43] was 2480 nM, the TGI [43] was 22400 nM and the GI50 [44] was 462 nM. For the same compound, the TGI [44] was 29200 nM, the GI50 [45] was 604 nM and the TGI [45] was 15600 nM. The GI50 [46] was 448 nM, the TGI [46] was 11100 nM and the GI50 [47] was 12100 nM. It also gave a TGI [47] of 32100 nM, a GI50 [48] of 329 nM and a TGI [48] of 13900 nM. For the same compound, the GI50 [49] was 631 nM, the TGI [49] was 15100 nM and the GI50 [50] was 1510 nM. For the same compound, the TGI [50] was 8520 nM, the GI50 [51] was 1330 nM and the TGI [51] was 19200 nM. For the same compound, the GI50 [52] was 808 nM, the TGI [52] was > 88900 nM and the GI50 [53] was 1190 nM. It also gave a TGI [53] of 15900 nM, a GI50 [54] of 1060 nM and a TGI [54] of 20800 nM. For the same compound, the GI50 [55] was 9740 nM, the TGI [55] was 30000 nM and the GI50 [56] was 379 nM. For the same compound, the TGI [56] was > 51300 nM, the GI50 [57] was 1490 nM and the TGI [57] was 19400 nM. For the same compound, the GI50 [58] was 517 nM and the TGI [58] was 15000 nM.

— PubChem BioAssay (NCI)
